US12679824B2 (Hoffmann-La Roche Inc., priority 2020, dated 2026)

System: Acinetobacter baumannii ATCC17961
Test: 90% Growth Inhibitory Concentration (IC90) determination, antimicrobial susceptibility testing
Format: cell-based
Conditions: Acinetobacter baumannii, ATCC17961, 16 h, Acinetobacter baumannii ATCC17961; Iso-Sensitest broth; growth by optical density at 600 nm over 16h; concentration inhibiting 90% of the growth; read-out: ATCC 17961 IC90
Description: Antimicrobial Susceptibility Testing:
90% Growth Inhibitory Concentration (IC90) Determination
The in vitro antimicrobial activity of the compounds was determined according to the following procedure:
The assay used a 10-points Iso-Sensitest broth medium to measure quantitatively the in vitro activity of the compounds against Acinetobacter baumannii ATCC17961.
Stock compounds in DMSO were serially twofold diluted (e.g. range from 50 to 0.097 μM final concentration) in 384 wells microtiter plates and inoculated with 49 μl the bacterial suspension in Iso-Sensitest medium to have a final cell concentration of ~5×10^(5) CFU/ml in a final volume/well of 50 ul/well. Microtiter plates were incubated at 35±2° C.
Bacterial cell growth was determined with the measurement of optical density at λ=600 nm each 20 minutes over a time course of 16h. Growth inhibition was calculated during the logarithmic growth of the bacterial cells with determination of the concentration inhibiting 50% (IC50) and 90% (IC90) of the growth.
Table 1 provides the 90% growth inhibitory concentrations (IC90) in micromoles per liter of the compounds of present invention obtained against the strain Acinetobacter baumannii ATCC17961.

| IC90 | Compound |
| --- | --- |
| 310 nM | Cn1c(-c2cn(-c3ncc(N)cc3F)nc2C(F)(F)F)cnc1C(=O)Nc1ccc(C(=O)N2CCN(C(=O)C3CCNCC3)CC2)c(Cl)c1 [Example Z71, 5-[1-(5-amino-3-fluoro-2-pyridyl)-3-(trifluoromethyl)pyrazol-4-yl]-N-[3-chloro-4-[4-(piperidine-4-carbonyl)piperazine-1-carbonyl]phenyl]-1-methyl-imidazole-2-carboxamide] |
| 510 nM | Cn1c(-c2cn(-c3ccc(N)cn3)nc2C(F)(F)F)cnc1C(=O)Nc1ccc(C(=O)N[C@H]2CC[C@H](NC(=O)[C@@H]3C[C@@H](O)CN3)C2)c(Cl)c1 [Example Z48, 5-[1-(5-amino-2-pyridyl)-3-(trifluoromethyl)pyrazol-4-yl]-N-[3-chloro-4-[[(1S,3S)-3-[[(2S,4R)-4-hydroxyprolyl]amino]cyclopentyl]carbamoyl]phenyl]-1-methyl-imidazole-2-carboxamide] |
| 980 nM | Cn1c(-c2cn(-c3ccc(NC(=O)C4CCNCC4)cn3)nc2C(F)(F)F)cnc1C(=O)Nc1ccc(C(=O)N2CCN(C(=O)C3CCNCC3)CC2)c(Cl)c1 [Example Z88, N-[6-[4-[2-[[3-chloro-4-(4-isonipecotoylpiperazine-1-carbonyl)phenyl]carbamoyl]-3-methyl-imidazol-4-yl]-3-(trifluoromethyl)pyrazol-1-yl]-3-pyridyl]isonipecotamide] |
| 440 nM | CC[C@H]1CNCCN1C(=O)c1ccc(NC(=O)c2ncc(-c3cn(-c4ccc(N)cn4)nc3C(F)(F)F)n2C)cc1Cl [Example Z64, 5-[1-(5-amino-2-pyridyl)-3-(trifluoromethyl)pyrazol-4-yl]-N-[3-chloro-4-[(2S)-2-ethylpiperazine-1-carbonyl]phenyl]-1-methyl-imidazole-2-carboxamide] |
| 800 nM | Cn1c(-c2cn(-c3ccnc(Cl)c3)nc2C(F)(F)F)cnc1C(=O)Nc1ccc(C(=O)N2CCN(C(=O)C3CCNCC3)CC2)c(Cl)c1 [Example Z50, N-[3-chloro-4-(4-isonipecotoylpiperazine-1-carbonyl)phenyl]-5-[1-(2-chloro-4-pyridyl)-3-(trifluoromethyl)pyrazol-4-yl]-1-methyl-imidazole-2-carboxamide] |
| 380 nM | Cn1c(-c2cn(-c3cc(Cl)c(N)cn3)nc2C(F)(F)F)cnc1C(=O)Nc1ccc(C(=O)N2CCN(C(=O)C3CCNCC3)CC2)c(Cl)c1 [Example Z80, 5-[1-(5-amino-4-chloro-2-pyridyl)-3-(trifluoromethyl)pyrazol-4-yl]-N-[3-chloro-4-[4-(piperidine-4-carbonyl)piperazine-1-carbonyl]phenyl]-1-methyl-imidazole-2-carboxamide] |
| 170 nM | Cn1c(-c2cn(-c3cc(N)c([N+](=O)[O-])cn3)nc2C(F)(F)F)cnc1C(=O)Nc1ccc(C(=O)N2CCN(C(=O)C3CCNCC3)CC2)c(Cl)c1 [Example Z85, 5-[1-(4-amino-5-nitro-2-pyridyl)-3-(trifluoromethyl)pyrazol-4-yl]-N-[3-chloro-4-[4-(piperidine-4-carbonyl)piperazine-1-carbonyl]phenyl]-1-methyl-imidazole-2-carboxamide] |
| 1220 nM | Cn1c(-c2cn(-c3cc(F)ncc3N)nc2C(F)(F)F)cnc1C(=O)Nc1ccc(C(=O)N2CCN(C(=O)C3CCNCC3)CC2)c(Cl)c1 [Example Z83, 5-[1-(5-amino-2-fluoro-4-pyridyl)-3-(trifluoromethyl)pyrazol-4-yl]-N-[3-chloro-4-[4-(piperidine-4-carbonyl)piperazine-1-carbonyl]phenyl]-1-methyl-imidazole-2-carboxamide] |
| 1270 nM | C[C@@H]1CN(C(=O)c2ccc(NC(=O)c3ncc(-c4cn(-c5ccc(N)cn5)nc4C(F)(F)F)n3C)cc2Cl)CCCN1 [Example Z52, 5-[1-(5-amino-2-pyridyl)-3-(trifluoromethyl)pyrazol-4-yl]-N-[3-chloro-4-[(3R)-3-methyl-1,4-diazepane-1-carbonyl]phenyl]-1-methyl-imidazole-2-carboxamide] |

Further lines, the compound ahead of its results:

| Compound | IC90 |
| --- | --- |
| Cn1c(-c2cn(-c3ccccn3)nc2C(F)(F)F)cnc1C(=O)Nc1ccc(C(=O)N2CCN(C(=O)C3CCNCC3)CC2)c(Cl)c1 [Example A11, N-[3-chloro-4-[4-(piperidine-4-carbonyl)piperazine-1-carbonyl]phenyl]-1-methyl-5-[1-(2-pyridyl)-3-(trifluoromethyl)pyrazol-4-yl]imidazole-2-carboxamide] | 240 nM |
| COCCNc1ccnc(-n2cc(-c3cnc(C(=O)Nc4ccc(C(=O)N5CCN(C(=O)C6CCNCC6)CC5)c(Cl)c4)n3C)c(C(F)(F)F)n2)n1 [Example A19, N-[3-chloro-4-[4-(piperidine-4-carbonyl)piperazine-1-carbonyl]phenyl]-5-[1-[4-(2-methoxyethylamino)pyrimidin-2-yl]-3-(trifluoromethyl)pyrazol-4-yl]-1-methyl-imidazole-2-carboxamide] | 1200 nM |
| Cn1c(-c2cn(-c3ccc(Cl)cn3)nc2C(F)(F)F)cnc1C(=O)Nc1ccc(C(=O)N2CCN(C(=O)C3CCNCC3)CC2)c(Cl)c1 [Example A3, N-[3-chloro-4-[4-(piperidine-4-carbonyl)piperazine-1-carbonyl]phenyl]-5-[1-(5-chloro-2-pyridyl)-3-(trifluoromethyl)pyrazol-4-yl]-1-methyl-imidazole-2-carboxamide] | 370 nM |
| CCN(CC)C(=O)c1ccc(NC(=O)c2ncc(-c3cn(-c4ccc(N)cn4)nc3C(F)(F)F)n2C)cc1Cl [Example Z76, 5-[1-(5-amino-2-pyridyl)-3-(trifluoromethyl)pyrazol-4-yl]-N-[3-chloro-4-(diethylcarbamoyl)phenyl]-1-methyl-imidazole-2-carboxamide] | 1140 nM |
| Cn1c(-c2cn(-c3ccncc3)nc2C(F)(F)F)cnc1C(=O)Nc1ccc(C(=O)N2CCN(C(=O)C3CCNCC3)CC2)c(Cl)c1 [Example A2, N-[3-chloro-4-[4-(piperidine-4-carbonyl)piperazine-1-carbonyl]phenyl]-1-methyl-5-[1-(4-pyridyl)-3-(trifluoromethyl)pyrazol-4-yl]imidazole-2-carboxamide] | 710 nM |
| Cn1c(-c2cn(-c3ccc(N)cn3)nc2C(F)(F)F)cnc1C(=O)Nc1ccc(C(=O)N[C@H]2C[C@H](N)C2)c(Cl)c1 [Example Z19, N-[4-[trans-(3-aminocyclobutyl)carbamoyl]-3-chloro-phenyl]-5-[1-(5-amino-2-pyridyl)-3-(trifluoromethyl)pyrazol-4-yl]-1-methyl-imidazole-2-carboxamide] | 950 nM |
| COc1cccc(-n2cc(-c3cnc(C(=O)Nc4ccc(C(=O)N5CCN(C(=O)C6CCNCC6)CC5)c(Cl)c4)n3C)c(C(F)(F)F)n2)n1 [Example Z31, N-[3-chloro-4-(4-isonipecotoylpiperazine-1-carbonyl)phenyl]-5-[1-(6-methoxy-2-pyridyl)-3-(trifluoromethyl)pyrazol-4-yl]-1-methyl-imidazole-2-carboxamide] | 860 nM |
| CNc1ccc(-n2cc(-c3cnc(C(=O)Nc4ccc(C(=O)N5CCN(C(=O)CN6CCC(O)C6)CC5)c(Cl)c4)n3C)c(C(F)(F)F)n2)nc1 (stereo not shown) [Example D5, N-[3-chloro-4-[4-[2-(3-hydroxypyrrolidin-1-yl)acetyl]piperazine-1-carbonyl]phenyl]-1-methyl-5-[1-[5-(methylamino)-2-pyridyl]-3-(trifluoromethyl)pyrazol-4-yl]imidazole-2-carboxamide] | 310 nM |
| COc1ccc(-n2cc(-c3cnc(C(=O)Nc4ccc(C(=O)N5CCN(C(=O)C6CCNCC6)CC5)c(Cl)c4)n3C)c(C(F)(F)F)n2)nc1 [Example A13, N-[3-chloro-4-[4-(piperidine-4-carbonyl)piperazine-1-carbonyl]phenyl]-5-[1-(5-methoxy-2-pyridyl)-3-(trifluoromethyl)pyrazol-4-yl]-1-methyl-imidazole-2-carboxamide] | 210 nM |
| Cn1c(-c2cn(-c3ccc(N)cn3)nc2C(F)(F)F)cnc1C(=O)Nc1ccc(C(=O)NCCCCCN)c(Cl)c1 [Example Z28, N-[4-(5-aminopentylcarbamoyl)-3-chloro-phenyl]-5-[1-(5-amino-2-pyridyl)-3-(trifluoromethyl)pyrazol-4-yl]-1-methyl-imidazole-2-carboxamide] | 360 nM |
| Cn1c(-c2cn(-c3ccc(N)cn3)nc2C(F)(F)F)cnc1C(=O)Nc1ccc(C(=O)NCCCN)c(Cl)c1 [Example Z2, N-[4-(3-aminopropylcarbamoyl)-3-chloro-phenyl]-5-[1-(5-amino-2-pyridyl)-3-(trifluoromethyl)pyrazol-4-yl]-1-methyl-imidazole-2-carboxamide] | 980 nM |

Same assay, conditions: Acinetobacter baumannii, ATCC17961, 16 h, read-out: ATCC 17961 IC90

| Compound | IC90 |
| --- | --- |
| Cn1c(-c2cn(-c3ccc(N)cn3)nc2C(F)(F)F)cnc1C(=O)Nc1ccc(C(=O)N2CCC(C(=O)N3CCNCC3)CC2)c(Cl)c1 [Example H1, 5-[1-(5-Amino-2-pyridyl)-3-(trifluoromethyl)pyrazol-4-yl]-N-[3-chloro-4-[4-(piperazine-1-carbonyl)piperidine-1-carbonyl]phenyl]-1-methyl-imidazole-2-carboxamide] | 480 nM |
| Cn1c(-c2cn(-c3ccc(N)cn3)nc2C(F)(F)F)cnc1C(=O)Nc1ccc(C(=O)N2CCN(C(=O)C3CCNCC3)CC2)c(Cl)c1 [Example C1, 5-[1-(5-Amino-2-pyridyl)-3-(trifluoromethyl)pyrazol-4-yl]-N-[3-chloro-4-[4-(piperidine-4-carbonyl)piperazine-1-carbonyl]phenyl]-1-methyl-imidazole-2-carboxamide] | 220 nM |
